{"source": "paper PMC3633088", "about": "(Chemistry & biology, 2013)", "molecules": {"B1": {"name": "Human asparaginase 3 (hASNase3), cleaved form (α- and β-chains) (complex)", "chain 1": "MNPIVVVHGGGAGPISKDRKERVHQGMVRAATVGYGILREGGSAVDAVEGAVVALEDDPEFNAGCGSVLNTNGEVEMDASIMDGKDLSAGAVSAVQCIANPIKLARLVMEKTPHCFLTDQGAAQFAAAMGVPEIPGEKLVTERNKKRLEKEKHEKGAQKTDCQKNLG", "chain 2": "TVGAVALDCKGNVAYATSTGGIVNKMVGRVGDSPCLGAGGYADNDIGAVSTTGHGESILKVNLARLTLFHIEQGKTVEEAADLSLGYMKSRVKGLGGLIVVSKTGDWVAKWTSTSMPWAAAKDGKLHFGIDPDDTTITDLP"}, "B2": {"name": "hASNase3 β-chain (domain or fragment, human, UniProt Q7L266 168-308, looked up)", "chain": "B1 chain 2"}}, "key": {"[1]": {"target": "T1, hASNase3, cleaved (active) form, alpha and beta chains (Homo sapiens, UniProt Q7L266)", "T1 sequence (Q7L266 1-167)": "B1 chain 1", "T1 sequence (Q7L266 168-308)": "B1 chain 2", "test": "asparaginase activity assay", "assay_type": "biochemical", "details": "up to 50 mM; cleaved enzyme"}, "[2]": {"target": "T1, hASNase3, cleaved (active) form, alpha and beta chains", "test": "asparaginase activity assay", "assay_type": "biochemical", "details": "turnover by cleaved enzyme only; data not shown"}, "[3]": {"target": "T1, hASNase3, cleaved (active) form, alpha and beta chains", "test": "X-ray crystal structure, […] Å", "assay_type": "binding", "details": "crystal soaked in 3 M glycine, pH 4.9, <1 minute; substrate site (Arg196, Asp199)"}, "[4]": {"target": "T1, hASNase3, cleaved (active) form, alpha and beta chains", "test": "asparaginase activity assay", "assay_type": "biochemical", "details": "10 or 50 mM glycine; cleaved enzyme"}, "[5]": {"target": "T2, hASNase3, uncleaved form (human asparaginase 3; hASRGL1/ALP; CRASH) (Homo sapiens, UniProt Q7L266)", "T2 sequence (Q7L266 1-308)": "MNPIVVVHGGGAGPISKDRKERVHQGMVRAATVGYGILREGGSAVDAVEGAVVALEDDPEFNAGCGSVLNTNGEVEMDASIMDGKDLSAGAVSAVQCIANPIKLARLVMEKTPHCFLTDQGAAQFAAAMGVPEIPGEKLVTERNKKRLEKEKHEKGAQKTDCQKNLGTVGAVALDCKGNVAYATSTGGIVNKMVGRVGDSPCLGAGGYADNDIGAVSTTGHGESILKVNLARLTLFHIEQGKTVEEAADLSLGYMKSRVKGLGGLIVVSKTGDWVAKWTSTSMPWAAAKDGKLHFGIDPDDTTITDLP", "test": "autocleavage, SDS-PAGE band quantification", "assay_type": "biochemical", "details": "accelerates autoproteolysis; 5 mM glycine, pH 7.5, 25 °C, 42 hours"}, "[6]": {"target": "the molecule itself", "test": "crystal structure"}, "[7]": {"target": "T3, hASNase3 α-chain (human, UniProt Q7L266 1-167)", "T3 sequence (looked up)": "B1 chain 1", "test": "crystal structure"}}, "data": [{"molecule": "N[C@@H](CC(=O)O)C(=O)O", "note": "[L-aspartate]", "values": [{"measurement": "inhibition, concentration-dependent", "setting": "[1]", "result": "glycolate, glyoxylate, oxalate, L-aspartate, and serine showed a concentration-dependent effect"}]}, {"molecule": "NC(=O)C[C@H](N)C(=O)O", "note": "[asparagine]", "values": [{"measurement": "asparaginase activity assay", "setting": "[2]", "result": "The measured asparaginase activity of hASNase3 was proportional to the amount of cleaved enzyme"}]}, {"molecule": "NCC(=O)O", "note": "[glycine]", "values": [{"measurement": "X-ray crystal structure, 1.91 Å", "setting": "[3]", "result": "In this post-cleavage state of hASNase3, glycine bound at the active site"}, {"measurement": "% reduction of asparaginase activity at 10 or 50 mM", "setting": "[4]", "result": "~ 50%"}, {"measurement": "% cleavage at 5 mM", "setting": "[5]", "result": 40, "unit": "%"}]}, {"molecule": "O=C(O)CO", "note": "[glycolate]", "values": [{"measurement": "inhibition, concentration-dependent", "setting": "[1]", "result": "glycolate, glyoxylate, oxalate, L-aspartate, and serine showed a concentration-dependent effect"}]}, {"molecule": "O=CC(=O)O", "note": "[glyoxylate]", "values": [{"measurement": "inhibition, concentration-dependent", "setting": "[1]", "result": "glycolate, glyoxylate, oxalate, L-aspartate, and serine showed a concentration-dependent effect"}]}, {"molecule": "O=C(O)C(=O)O", "note": "[oxalate]", "values": [{"measurement": "inhibition, concentration-dependent", "setting": "[1]", "result": "glycolate, glyoxylate, oxalate, L-aspartate, and serine showed a concentration-dependent effect"}]}, {"molecule": "N[C@@H](CO)C(=O)O", "note": "[serine]", "values": [{"measurement": "inhibition, concentration-dependent", "setting": "[1]", "result": "glycolate, glyoxylate, oxalate, L-aspartate, and serine showed a concentration-dependent effect"}]}, {"molecule": "B1", "values": [{"measurement": "binding result", "setting": "[6]", "result": "binds"}]}, {"molecule": "B2", "values": [{"measurement": "binding result", "setting": "[7]", "result": "binds"}]}]}
